Test results published in patent publication US8188053B2, “Anti-inflammatory peptides” (The University of Manchester, priority 2005, dated 2012).
Entries after “also recorded” stand apart in the source; their conditions may differ.

B1: hTRX: Recombinant human thioredoxin (SEQ ID NO. 14), from which the peptides of the invention are derived (protein, listed as Homo sapiens)
chain: MVKQIESKTAFQEALDAAGDKLVVVDFSATWCGPCKMIKPFFHSLSEKYSNVIFLEVDVDDCQDVASECEVKCMPTFQFFKKGQKVGEFSGANKEKLEATINELV

Experiments:
Format in all cases: in vivo
[1] = test system: allergen (oxazolone) induced Langerhans Cell (LC) migration; test: allergen (oxazolone) induced Langerhans Cell (LC) migration after prior topical application of peptide; conditions: for inhibition of allergen-induced LC migration: prior topical exposure to peptide, subsequent oxazolone at the same site; for biological activity (epidermal LC migration), equimolar comparison: equimolar doses (1.38 μM): 0.5 μg hTRX, 0.04 μg 9-mer, 0.025 μg KMIKP, 0.016 μg CGPC
Experimental: Various tissue studies are conducted to examine the effect of each of the aforementioned polypeptides on allergen (oxazolone) induced Langerhans Cell (LC) migration. Applications are in μg unless otherwise stated.
The purpose of this experiment is to determine whether topical application of peptide 1 is able to influence the integrity of LC migration induced by subsequent exposure at the same site to oxazolone, a potent contact allergen known to cause the mobilization of LC. The results of a representative experiment are illustrated in FIG. 1.
The purpose of this experiment is to determine whether topical application of peptide 3 is able to influence the integrity of LC migration induced by subsequent exposure at the same site to oxazolone. The results of three independent experiments are illustrated in FIG. 2. […] The conclusion drawn is that topically applied peptide 3 is able to inhibit one or more biological processes required for the effective mobilization and migration of LC in response to a stimulus, in this instance the contact allergen oxazolone.

[2] = test system: Langerhans Cell migration induced by IL-1β; test: Langerhans Cell migration provoked by intradermal administration of homologous IL-1β after prior topical peptide; conditions: prior topical exposure; id administration of homologous IL-1β
Source text: (§1) The purpose of this experiment is to investigate whether the 9-mer peptide (CGPCKMIKP; SEQ ID NO: 9) could affect Langerhans Cell migration induced by either IL-1β or TNF-α. The results of a representative experiment are illustrated in FIG. 9. […] The interpretation is that topical administration of the 9-mer peptide is associated with a perturbation of IL-1β function.

[3] = test system: Langerhans Cell migration induced by TNF-α; test: Langerhans Cell migration induced by intradermal injection of homologous TNF-α after prior topical peptide; conditions: prior topical exposure; intradermal (id) injection of homologous TNF-α
Source text: as §1

Row | Molecule | inhibition of allergen-induced LC migration [1] | biological activity (epidermal LC migration), equimolar comparison [1] | further results
1 | VKQIESKTAFQEALDAAGDK [peptide 1] | does not inhibit |  | 
2 | CGPCKMIKPFFHSLSEKYSN [peptide 3] | some indication for a dose-related inhibition; also recorded: substantial inhibition; also recorded: active |  | inhibition of allergen-induced LC migration at the highest concentration tested ([1]; highest concentration (0.5 μg) tested, three independent experiments, oxazolone): complete (or near complete) inhibition; variation in activity between peptide synthesis batches ([1]; two independent preparations of peptide 3, oxazolone-induced LC migration): only a small variation in activity
3 | SATYCGPCKMIKP [peptide RV-1] | does inhibit; also recorded: active |  | 
4 | IPCMPKCKG [scrambled 9-mer, reference compound] | not biologically active |  | 
5 | KMIKP |  | appear to exhibit biological activity | 
6 | ANKEKLEATINELV [peptide 7] | does not inhibit |  | 
7 | CGPC [reference compound] |  | all but the CGPC (SEQ ID NO: 22) peptide appear to exhibit biological activity | 
8 | AGPAKMIKP [cysteine free 9-mer peptide] | active |  | 
9 | CGPCKMIKP [9-mer peptide] | activity of the 9-mer peptide at all doses tested; also recorded: active | appear to exhibit biological activity | inhibition of allergen-induced LC migration ([1]; listed as 9-mer): active; influence on Langerhans Cell migration provoked by IL-1β [2]: without influence; inhibition of Langerhans Cell migration induced by TNF-α [3]: almost complete inhibition
10 | KMIMP | active |  | 
11 | B1 |  | appear to exhibit biological activity | 
